The source of these data is ChEMBL document CHEMBL5380823, “Application and Study of ROCK Inhibitors in Pulmonary Fibrosis: Recent Developments and Future Perspectives” (J Med Chem, 2023).

Data set [1] has as its target T1, Rho-associated protein kinase 2 (Homo sapiens, UniProt O75116). Nature of the data set: Inhibition of ROCK2 (unknown origin).
Data set [2] can be described thus: Half life in BLM-induced Sprague-Dawley rat at 1 mg/kg, iv measured upto 24 hrs. The note with it: in vivo. Format: ADME, organism-based.
The nature of data set [3]: Oral bioavailability in BLM-induced Sprague-Dawley rat at 2 mg/kg measured upto 24 hrs. Format: ADME, organism-based. As to conditions: in vivo.
In data set [4] the target is T1, Rho-associated protein kinase 2. Nature of the data set: Binding affinity to ROCK2 (unknown origin) assessed as inhibition constant.
Data set [5] has as its target Rho-associated protein kinase 1 (Homo sapiens, UniProt Q13464). In words: Binding affinity to ROCK1 (unknown origin) assessed as inhibition constant.
Data set [6] in a line: Half life in iv dosed Wistar rat at 0.5 mg/kg. The format is ADME, organism-based. The note with it: in vivo.
Data set [7] is described as follows: Oral bioavailability in Wistar rat at 1 mg/kg. As to conditions: in vivo. Format: ADME, organism-based.

T1 sequence (O75116 whole entry): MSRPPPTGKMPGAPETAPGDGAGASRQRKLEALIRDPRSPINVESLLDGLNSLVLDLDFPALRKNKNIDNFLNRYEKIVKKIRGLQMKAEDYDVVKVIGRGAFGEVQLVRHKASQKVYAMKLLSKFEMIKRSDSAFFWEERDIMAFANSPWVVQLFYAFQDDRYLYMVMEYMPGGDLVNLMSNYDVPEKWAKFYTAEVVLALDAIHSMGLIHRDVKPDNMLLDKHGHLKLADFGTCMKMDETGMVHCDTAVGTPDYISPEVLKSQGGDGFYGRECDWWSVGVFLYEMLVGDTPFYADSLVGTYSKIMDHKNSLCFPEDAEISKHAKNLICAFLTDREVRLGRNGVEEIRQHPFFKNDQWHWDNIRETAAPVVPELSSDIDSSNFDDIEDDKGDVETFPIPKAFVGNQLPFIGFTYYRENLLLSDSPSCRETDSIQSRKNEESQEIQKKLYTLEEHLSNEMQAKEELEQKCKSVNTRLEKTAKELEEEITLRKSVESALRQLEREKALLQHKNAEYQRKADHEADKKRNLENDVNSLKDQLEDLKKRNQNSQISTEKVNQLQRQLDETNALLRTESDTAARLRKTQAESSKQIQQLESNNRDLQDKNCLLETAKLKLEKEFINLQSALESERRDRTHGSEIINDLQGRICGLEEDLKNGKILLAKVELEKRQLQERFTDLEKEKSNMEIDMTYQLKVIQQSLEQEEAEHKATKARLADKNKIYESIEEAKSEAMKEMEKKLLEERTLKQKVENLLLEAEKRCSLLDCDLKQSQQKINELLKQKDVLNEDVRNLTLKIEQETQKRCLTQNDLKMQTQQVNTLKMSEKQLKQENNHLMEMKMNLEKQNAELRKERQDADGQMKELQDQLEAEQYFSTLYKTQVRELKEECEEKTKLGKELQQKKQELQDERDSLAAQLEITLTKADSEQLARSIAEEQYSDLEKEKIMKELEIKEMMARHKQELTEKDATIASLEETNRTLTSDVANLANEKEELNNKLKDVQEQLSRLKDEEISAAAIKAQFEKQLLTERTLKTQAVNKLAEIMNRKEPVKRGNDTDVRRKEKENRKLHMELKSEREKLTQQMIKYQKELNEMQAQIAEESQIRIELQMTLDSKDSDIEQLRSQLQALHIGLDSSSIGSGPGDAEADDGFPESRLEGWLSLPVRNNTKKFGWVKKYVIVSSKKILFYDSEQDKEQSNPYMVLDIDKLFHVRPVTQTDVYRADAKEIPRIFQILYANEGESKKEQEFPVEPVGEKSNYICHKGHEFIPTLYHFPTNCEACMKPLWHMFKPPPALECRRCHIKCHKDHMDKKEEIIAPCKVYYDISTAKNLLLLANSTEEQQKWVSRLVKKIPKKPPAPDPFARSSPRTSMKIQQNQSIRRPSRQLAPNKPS
Sequence of Rho-associated protein kinase 1 (Q13464 whole entry): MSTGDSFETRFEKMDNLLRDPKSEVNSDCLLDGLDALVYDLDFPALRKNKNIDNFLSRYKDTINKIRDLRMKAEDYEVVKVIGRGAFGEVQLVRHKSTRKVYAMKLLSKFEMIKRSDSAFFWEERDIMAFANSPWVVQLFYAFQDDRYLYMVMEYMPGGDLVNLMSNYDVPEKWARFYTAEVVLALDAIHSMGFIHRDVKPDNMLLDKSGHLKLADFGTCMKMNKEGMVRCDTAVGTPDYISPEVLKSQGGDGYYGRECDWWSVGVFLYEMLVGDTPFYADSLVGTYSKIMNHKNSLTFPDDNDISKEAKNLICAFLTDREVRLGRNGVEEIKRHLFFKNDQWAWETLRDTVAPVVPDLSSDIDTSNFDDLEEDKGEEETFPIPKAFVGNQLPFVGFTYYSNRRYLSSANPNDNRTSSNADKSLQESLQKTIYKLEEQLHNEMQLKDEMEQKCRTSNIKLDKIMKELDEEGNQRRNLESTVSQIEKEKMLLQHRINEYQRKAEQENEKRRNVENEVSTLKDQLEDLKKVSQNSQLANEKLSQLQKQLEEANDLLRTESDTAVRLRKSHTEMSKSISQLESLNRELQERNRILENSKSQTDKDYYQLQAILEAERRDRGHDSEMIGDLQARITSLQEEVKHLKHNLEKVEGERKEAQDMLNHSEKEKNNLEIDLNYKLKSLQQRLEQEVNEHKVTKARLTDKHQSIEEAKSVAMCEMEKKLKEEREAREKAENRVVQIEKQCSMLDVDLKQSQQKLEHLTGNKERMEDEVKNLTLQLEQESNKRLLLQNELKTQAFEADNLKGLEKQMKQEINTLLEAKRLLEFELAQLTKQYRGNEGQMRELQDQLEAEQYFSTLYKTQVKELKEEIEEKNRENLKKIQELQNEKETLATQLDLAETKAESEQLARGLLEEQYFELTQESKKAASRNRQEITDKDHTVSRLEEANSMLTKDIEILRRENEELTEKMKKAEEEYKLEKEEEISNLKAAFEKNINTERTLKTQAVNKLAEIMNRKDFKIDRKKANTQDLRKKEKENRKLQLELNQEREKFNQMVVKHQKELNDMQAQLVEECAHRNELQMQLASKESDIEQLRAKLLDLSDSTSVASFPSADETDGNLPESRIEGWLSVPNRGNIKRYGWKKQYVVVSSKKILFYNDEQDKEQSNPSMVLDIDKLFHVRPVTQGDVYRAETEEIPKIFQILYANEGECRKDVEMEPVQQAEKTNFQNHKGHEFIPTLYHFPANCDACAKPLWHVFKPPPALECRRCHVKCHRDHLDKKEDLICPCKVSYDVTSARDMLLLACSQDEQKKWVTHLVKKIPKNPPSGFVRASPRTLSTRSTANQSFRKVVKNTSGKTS

In turn, `Cc1c(C(=O)N[C@H]2C[C@]3(C2)C[C@H](c2n[nH]c(=O)c4ccccc42)C3)cnn1-c1ccccc1` (stereo partly drawn) returned an IC50 in data set [1] of 0.2 nM.

Consider `COc1cccc(C(CO)NC(=O)c2cccc(-c3ccc4[nH]ncc4c3)c2)c1` (stereo not drawn), for which the half-life in data set [2] is 2.9 h. In data set [3], the bioavailability is 45%.

`COc1cccc(Cn2cnn(-c3ccc(-c4cn[nH]c4)cc3)c2=O)c1` had a 50% inhibitory concentration (IC50) in data set [1] below 5 nM. In the case of `COc1cccc(CN2C(=O)N(c3ccc(-c4cn[nH]c4)c(OC)c3)CC23CC3)c1`, the IC50 in data set [1] is below 3 nM. Turning to `c1cc(Oc2ccc3c(c2)CNCC3)c2c(-c3ccncc3)c[nH]c2c1`, the Ki in data set [4] and in data set [5] was below 3 nM each time. In turn, `NC(=O)c1ccccc1O[C@H]1C[C@]2(C1)C[C@H](N1C(=O)NC(c3ccccc3Cl)C1=O)C2` (stereo partly drawn) showed an IC50 in data set [1] of 2 nM. This counts as single-digit nanomolar. On to `COc1cccc(CN2CCN(c3ccc4c(c3)CCc3n[nH]cc3-4)C2=O)c1`, for which the half-maximal inhibitory concentration (IC50) in data set [1] is below 10 nM.

As for `Cc1c[nH]c2nccc(Oc3ccc(Nc4cc(Cl)nc(N)n4)cc3F)c12`, in data set [6], the half-life is 1.2 h. The compound further returned a bioavailability in data set [7] of 48%. With `NC[C@@H](C(=O)Nc1ccc2cnsc2c1)c1ccc(CO)cc1`, half-maximal inhibition in data set [1] (IC50) required 1.45 nM. In data set [1], `COc1cc(-c2cc(C)cc(C)n2)sc1C(=O)NCC(O)CO` (stereo not drawn) displayed an IC50 of 14 nM.

One may read the IC50 as the concentration at which inhibition is half-maximal. Lower therefore signals higher potency. Usually half-life stands for how long it takes for the measured level to halve. A higher half-life goes with slow loss. By bioavailability is commonly meant dose-corrected exposure relative to a reference, in per cent. High values mean good availability, low ones poor availability. For orientation: Ki means a measure of affinity in units of concentration, obtained from inhibition or displacement.
